Like-named read-outs stand apart in the source and are kept apart here.
Legend:
[1] = biological target: Cys242 in human PIK3CA (157-299) (Homo sapiens (Human), UniProt P42336); test: Covalent modification assay using MALDI-TOF MS; type: biochemical; details: 4 h reaction time point
Summary of the method: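 PIK3CA (157-299) at 3.33 μM or 1 μM in 20 mM HEPES, 150 mM NaCl, 2 mM MgCl2, pH 7.3 was incubated with compound (from 10 mM DMSO stocks) in the dark at room temperature for 15 min, 30 min, 2 h or 4 h. Linear-mode MALDI-TOF peak heights gave percent modification.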

[2] = test system: pAKT in BT474 cells; test: Cell-based pAKT HTRF assay in BT474 cells; details: BT474 cells, 4 hr incubation, read-out: pAKT inhibition IC50 in BT474 cells
Summary of the method: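 Cells are seeded on day 1 and dosed on day 2 with a 9-point curve (3 μM top, 3-fold). After 4 hr they are lysed and the lysate is mixed with d2- and Eu Cryptate-labelled antibodies. HTRF is read after 4–24 h at room temperature.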

[3] = 3.33 μM protein target, 1:7.5 protein to compound ratio (compounds 1-852)
[4] = Homo sapiens, BT-474, Compounds 10-999
[5] = 1 μM protein target, 1:5 protein to compound ratio (compounds 853-1279)

Sequence of Cys242 in human PIK3CA (157-299) (P42336 157-299): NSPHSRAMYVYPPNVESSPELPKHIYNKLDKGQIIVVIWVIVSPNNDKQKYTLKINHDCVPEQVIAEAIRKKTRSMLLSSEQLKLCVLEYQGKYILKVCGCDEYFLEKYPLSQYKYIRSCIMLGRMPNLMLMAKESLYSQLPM

| SMILES | % of modification [1, 3] | IC50 [2, 4] [nM] | IC50 ([2]; Compounds 10-999) [nM] | % of modification [1, 5] | IC50 ([2]; Compounds 1000-1279) [nM] |
| --- | --- | --- | --- | --- | --- |
| C=CC(=O)N1CCc2ccc(-c3nc(-c4ccc5c(c4)CNC5=O)c4ccsc4c3-c3c(F)cc(F)cc3OC(C)C)nc2C1 [Compound 411, 5-[7-(2,4-difluoro-6-isopropoxy-phenyl)-6-(7-prop-2-enoyl-6,8-dihydro-5H-1,7-naphthyridin-2-yl)thieno[3,2-c]pyridin-4-yl]isoindolin-1-one] | A (percent of modification of PIK3CA protein ≥75%) | < 100 | – | – | – |
| C=CC(=O)N1Cc2cc(-c3nc(-c4cnnc(C)c4)c4ccsc4c3-c3c(F)cc(F)cc3OCCO)nn2CC1C (stereo not drawn) [Compound 829] | A (percent of modification of PIK3CA protein ≥75%) | – | < 100 | – | – |
| C=CC(=O)N1CCn2nc(-c3nc(-c4ccc5c(c4)CCN(C)C5)c4ccsc4c3-c3c(F)cc(F)cc3OC[C@@H](C)O)cc2[C@@H]1C [Compound 546] | A (percent of modification of PIK3CA protein ≥75%) | – | < 100 | – | – |
| C=CC(=O)N1CCc2ccc(-c3nc(-c4ccc5c(c4)CNC(=O)C54CC4)c4ccsc4c3-c3c(F)cc(F)cc3OCCOC)cc2C1 [Compound 1191] | – | – | – | A (percent of modification of PIK3CA protein ≥75%) | < 100 |
| C=CC(=O)N1CCn2nc(-c3nc(-c4ccc([C@H](N(C)C)C(F)(F)F)cc4)c4ccsc4c3-c3c(F)cc(F)cc3OCCOC)cc2[C@H]1C (single isomer, unassigned) [Compound 1150] | – | – | – | A (percent of modification of PIK3CA protein ≥75%) | 100 to 1000 |
| C=CC(=O)N1CCc2nc(-c3nc(-c4ccc5c(c4)CCNC5=O)c4ccsc4c3-c3c(F)cc(F)cc3OCCOC)sc2C1 [Compound 977] | – | – | 100 to 1000 | A (percent of modification of PIK3CA protein ≥75%) | – |
| C=CC(=O)N1CCc2ncc(-c3nc(-c4ccc(=O)n(C)c4)c4ccsc4c3-c3c(F)cc(F)cc3OCCOC)cc2C1 [Compound 375] | A (percent of modification of PIK3CA protein ≥75%) | – | < 100 | – | – |
| C=C(F)C(=O)N1CCn2nc(-c3nc(-c4cnc5c(c4)CN(C)CC5)c4ccsc4c3-c3ccc(F)cc3OC(C)C)cc2C1 [Compound 306] | B (50%<percent of modification <75%) | – | < 100 | – | – |
| C=CC(=O)N1CCc2ccc(-c3nc(-c4ccc5c(c4)C(=O)NC5)c4ccsc4c3-c3c(F)cc(F)cc3OCCOC)cc2C1 [Compound 1107] | – | – | – | A (percent of modification of PIK3CA protein ≥75%) | < 100 |
| C=CC(=O)N1CCn2nc(-c3nc(-c4ccc(=O)n(C)c4)c4ccsc4c3-c3ccc(F)cc3OCCOC)cc2C1 [Compound 195, 5-[7-[4-fluoro-2-(2-methoxyethoxy)phenyl]-6-(5-prop-2-enoyl-6,7-dihydro-4H-pyrazolo[1,5-a]pyrazin-2-yl)thieno[3,2-c]pyridin-4-yl]-1-methyl-pyridin-2-one] | A (percent of modification of PIK3CA protein ≥75%) | < 100 | – | – | – |
| C=CC(=O)N1CCc2nc(-c3nc(-c4ccc5c(c4)CCN(C)C5)c4ccsc4c3-c3c(F)cc(F)cc3OC(F)F)sc2C1 [Compound 475] | B (50%<percent of modification <75%) | – | > 3000 | – | – |
| C=CC(=O)N1CCc2ncc(-c3nc(-c4cncc(Cl)c4)c4ccsc4c3-c3c(F)cc(F)cc3OCCOC)cc2C1 [Compound 377] | A (percent of modification of PIK3CA protein ≥75%) | – | < 100 | – | – |
| C=CC(=O)N1CCc2nc(-c3nc(-c4cnc5c(c4)CNC(=O)C5)c4ccsc4c3-c3ccc(F)cc3OCCOC)sc2C1 [Compound 119] | A (percent of modification of PIK3CA protein ≥75%) | – | < 100 | – | – |
| C=CC(=O)N1Cc2cc(-c3nc(-c4ccc5ncn(C)c5c4)c4ccsc4c3-c3c(F)cc(F)cc3O[C@H](C)CO)nn2C[C@H]1C [Compound 611] | D (percent of modification <25%) | – | 100 to 1000 | – | – |
| C=CC(=O)N1C[C@H](C)n2nc(-c3nc(-c4cnn(C)c4)c4ccsc4c3-c3c(F)cc(F)cc3OCCOC)cc2[C@@H]1C [Compound 607] | A (percent of modification of PIK3CA protein ≥75%) | – | < 100 | – | – |
| C=CC(=O)N1CCn2nc(-c3nc(-c4ccc5ncn(C)c(=O)c5c4)c4ccsc4c3-c3c(F)cc(F)cc3OCCOC)cc2C1C (stereo not drawn) [Compound 925] | – | – | < 100 | A (percent of modification of PIK3CA protein ≥75%) | – |
| C=CC(=O)N1CCn2cc(-c3nc(-c4ccc(=O)n(C)c4)c4ccsc4c3-c3ccc(F)cc3OCC3CCN(C)C(=O)C3)nc2C1 (stereo not drawn) [Compound 264] | A (percent of modification of PIK3CA protein ≥75%) | – | > 3000 | – | – |
| C=CC(=O)N1CCn2nc(-c3nc(-c4ccc([C@H](NC)C(F)(F)F)cc4)c4ccsc4c3-c3c(F)cc(F)cc3OCCOC)cc2[C@H]1C (single isomer, unassigned) [Compound 1149] | – | – | – | A (percent of modification of PIK3CA protein ≥75%) | < 100 |

| SMILES | % of modification [1, 3] | IC50 [2, 4] [nM] | IC50 ([2]; Compounds 10-999) [nM] | % of modification [1, 5] | IC50 ([2]; Compounds 1000-1279) [nM] |
| --- | --- | --- | --- | --- | --- |
| C=CC(=O)N1Cc2cc(-c3nc(-c4ccc5c(c4)CCN(C)C5)c4ccsc4c3-c3c(F)cc(F)cc3OC[C@@H](C)O)nn2[C@@H](C)C1 [Compound 590] | A (percent of modification of PIK3CA protein ≥75%) | – | < 100 | – | – |
| C=CC(=O)N1CC[C@@H](n2cc(-c3nc(-c4ccc(=O)n(C)c4)c4ccsc4c3-c3c(F)cc(F)cc3OC(C)C)cn2)C1 [Compound 389] | A (percent of modification of PIK3CA protein ≥75%) | – | < 100 | – | – |
| C=CC(=O)N1Cc2cc(-c3nc(-c4ccc5c(c4)N(C)C(=O)C5)c4ccsc4c3-c3c(F)cc(F)cc3OCCOC)nn2C[C@H]1C [Compound 692] | A (percent of modification of PIK3CA protein ≥75%) | – | < 100 | – | – |
| C=CC(=O)N1CCn2nc(-c3nc(-c4cnc5c(c4)N(C)C(=O)C5)c4ccsc4c3-c3c(F)cc(F)cc3OCCOC)cc2C1C (stereo not drawn) [Compound 1058] | – | – | – | A (percent of modification of PIK3CA protein ≥75%) | < 100 |
| C=CC(=O)N1CCc2ncc(-c3nc(-c4cnn(C)c4)c4ccsc4c3-c3c(F)cc(F)cc3OCCOC)cc2C1 [Compound 393] | A (percent of modification of PIK3CA protein ≥75%) | – | < 100 | – | – |
| C=CC(=O)N1CCc2nc(-c3nc(-c4ccc5nn(C)cc5c4)c4ccsc4c3-c3c(F)cc(F)cc3OCCO)sc2C1 [Compound 1053] | – | – | – | A (percent of modification of PIK3CA protein ≥75%) | < 100 |
| C=CC(=O)N1Cc2cc(-c3nc(-c4cnc5c(c4)CNC(=O)C5)c4ccsc4c3-c3c(F)cc(F)cc3OC(C)C)nn2CC1C (stereo not drawn) [Compound 495] | A (percent of modification of PIK3CA protein ≥75%) | – | < 100 | – | – |
| C=CC(=O)N1Cc2cc(-c3nc(-c4ccc5c(c4)CCN(C)C5)c4ccsc4c3-c3c(F)cc(F)cc3OC(C)C)nn2C(C)C1 (stereo not drawn) [Compound 556] | A (percent of modification of PIK3CA protein ≥75%) | – | < 100 | – | – |
| C=CC(=O)N1Cc2cc(-c3nc(-c4cnn(C(C)C)c4)c4ccsc4c3-c3c(F)cc(F)cc3OC[C@@H](C)O)nn2C[C@H]1C [Compound 726] | A (percent of modification of PIK3CA protein ≥75%) | – | < 100 | – | – |
| C=CC(=O)N1Cc2cc(-c3nc(-c4cnn(C)c4)c4ccsc4c3-c3c(F)cc(F)cc3OCCO)nn2[C@@H](C)C1 [Compound 519] | A (percent of modification of PIK3CA protein ≥75%) | – | < 100 | – | – |
| C=CC(=O)N1CCn2nc(-c3nc(-c4ccc(=O)n(C)c4)c4ccsc4c3-c3ccc(F)cc3OC(F)F)cc2C1 [Compound 223] | A (percent of modification of PIK3CA protein ≥75%) | – | < 100 | – | – |
| C=CC(=O)N1CC(n2cc(-c3nc(-c4cnn(CCO)c4)c4ccsc4c3-c3ccc(F)cc3OCCOC)cn2)C1 [Compound 233] | A (percent of modification of PIK3CA protein ≥75%) | – | < 100 | – | – |
| C=CC(=O)N1Cc2cc(-c3nc(-c4cn(C)cn4)c4ccsc4c3-c3c(F)cc(F)cc3OCCO)nn2[C@@H](C)C1 [Compound 819] | A (percent of modification of PIK3CA protein ≥75%) | – | < 100 | – | – |
| C=CC(=O)N1Cc2cc(-c3nc(-c4ccc5c(c4)CCN(C)C5)c4ccsc4c3-c3c(F)cc(F)cc3OC[C@@H](C)O)nn2[C@@H](C)C1 [Compound 589] | D (percent of modification <25%) | – | < 100 | – | – |
| C=CC(=O)N1CCn2nc(-c3nc(-c4ccc5c(c4)CNC(=O)C54CC4)c4ccsc4c3-c3c(F)cc(F)cc3OCCOC)cc2C1C (stereo not drawn) [Compound 1083] | – | – | – | A (percent of modification of PIK3CA protein ≥75%) | < 100 |
| C=CC(=O)N1CCn2nc(-c3nc(-c4cnn(C)c4)c4ccsc4c3-c3c(F)cc(F)cc3OC(C)C)cc2C1 [Compound 289] | A (percent of modification of PIK3CA protein ≥75%) | – | < 100 | – | – |
| C=CC(=O)N1CCn2nc(-c3nc(-c4ccc(CC(=O)NC)cc4)c4ccsc4c3-c3c(F)cc(F)cc3OCCOC)cc2C1C (stereo not drawn) [Compound 1017] | – | – | – | A (percent of modification of PIK3CA protein ≥75%) | < 100 |
| C=CC(=O)N1CCn2nc(-c3nc(-c4ccc5c(c4)C(=O)NCC5)c4ccsc4c3-c3c(F)cc(F)cc3OCCOC)cc2[C@H]1C [Compound 956] | – | – | < 100 | A (percent of modification of PIK3CA protein ≥75%) | – |

Source: US20250230138A1, “COMPOUNDS HAVING A T-STRUCTURE FORMED BY AT LEAST FOUR CYCLES FOR USE IN THE TREATMENT OF CANCER AND OTHER INDICATIONS” (TheRas, Inc., priority 2022, published 2025)
